Experiments:
[1] = target: human P-glycoprotein (P-gp, MDR1) (Homo sapiens (Human), UniProt P08183); assay: MDCK-MDR1 cell monolayer drug transport assay (P-gp efflux ratio); type: in vitro ADME; settings: pH 7.4, MDCK-MDR1 cells, 1 uM concentration of compound, read-out: Pgp Efflux Ratio, 1 uM
Procedure: The potential for compounds prepared according to the examples to be substrates of P-gp was evaluated using in vitro on Multidrug Resistance Mutation 1-Mardin-Darby Canine Kidney (MDCK-MDR1)) (Mardin-Darby Canine Kidney) cell monolayers overexpressing P-gp grown on permeable supports.
Preparation for cell seeding: MDCK-MDR1 cell culture medium consisting of Dulbecco's Modified Eagle's Medium (DMEM) with high glucose and L-glutamine supplemented with: 10% FBS, 0.1 mg/mL of streptomycin, 0.6 μg/mL of Kanamycin sulfate and 100 units of penicillin was prepared. 50 μL of culture medium was added to each well of the Transwell insert. The Transwell insert was removed from the reservoir and 25 mL of culture medium was added. After incubation at 37° C., 5% CO2 for 1 hour, the plates were ready for cell seeding. The cells were cultivated in T-75 flasks in a cell culture incubator set at 37° C., 5% CO2, 95% relative humidity until they reached 80-90% confluence before detaching and splitting. The cultivated cells were rinsed in T-75 flasks with 5 mL PBS and aspirated off, and then 1.5 mL trypsin/EDTA was added and incubated at 37° C. for approximately 5 to 10 minutes or until the cells detach and float. The trypsin/EDTA was inactived by adding excess serum containing medium. The cell suspension was transferred to a conical tube and the cells pelleted by centrifugation at 120×g for 10 minutes. The cells were resuspended in seeding medium at a density of 1.56×10^6 cells/mL. This cell concentration was used to seed 5.45×10^5 cells/cm^2.
Seeding and feeding of MDCK-MDR1 cells into transwell plates: 50 μL of the above cell suspension was added to each well of a previously prepared Transwell plate and the plate was incubated for 4-8 days, replacing the medium every other day beginning no sooner than 48 hours after initial plating. The medium must be replaced on the day before conducting the experiment, and the procedure for medium changes was carried out as follows. The plate was removed from the incubator and placed in a hood. The medium was aspirated from a reservoir and each Transwell was inserted. 100 μL of culture medium was added to each well of the Transwell inserts and 25 mL of culture medium to reservoir tray. The plate was returned to the incubator.
Assessment of cell monolayer integrity: When the 4-day cultured MDCK-MDR1 cells reached confluence and were differentiated, the medium was removed from the reservoir and Transwell inserts. 100 μL of prewarmed culture medium was added to each transwell insert and 25 mL was added to the reservoir tray. The electrical resistance across the monolayer was measured using a Millicell Epithelial Volt-Ohm measuring system. The electrical resistance for each well was measured and then the plate was returned to the incubator. TEER values were calculated using this formula: TEER measurement (ohms)×Area of membrane (cm2)=TEER value (ohm cm2). Any monolayer with a TEER value <42 ohms·cm2, indicating poor monolayer formation, was discarded.
Performing the drug transport assay: The MDCK-MDR1 plate was removed from the incubator and the monolayer was washed, exchanging the volume two times using pre-warmed HBSS (Hank's balanced salt solution) (10 mM HEPES, pH 7.4). The plate was then incubated at 37° C. for 30 minutes. A 1 μM compound working solution was prepared as follows: Added […] of stock solution (10 mM in DMSO) of test compound and control compounds (Metoprolol, Prazosin and Imatinib) in one 96 well plate, then added 98 μL of DMSO into the same well to obtain 0.2 mM stock solutions (note a stock solution was further diluted 1:10 for eventually making a 0.1 uM compound working solution). Transfered 3 μL of 0.2 mM solution into 597 μL of transport buffer in one 96 well plate to prepare the 1 μM compound working solution. The plate was shaken at 1000 rpm for 10 min.

[2] = target: wild type c-kit (Homo sapiens (Human), UniProt P10721); assay: PathScan phospho c-kit (Tyr719) sandwich ELISA in SCF-stimulated M-07e cells (pKIT assay); type: cell-based; settings: ELISA assay (values not marked *)
wild type c-kit, sequence (P10721 26-976): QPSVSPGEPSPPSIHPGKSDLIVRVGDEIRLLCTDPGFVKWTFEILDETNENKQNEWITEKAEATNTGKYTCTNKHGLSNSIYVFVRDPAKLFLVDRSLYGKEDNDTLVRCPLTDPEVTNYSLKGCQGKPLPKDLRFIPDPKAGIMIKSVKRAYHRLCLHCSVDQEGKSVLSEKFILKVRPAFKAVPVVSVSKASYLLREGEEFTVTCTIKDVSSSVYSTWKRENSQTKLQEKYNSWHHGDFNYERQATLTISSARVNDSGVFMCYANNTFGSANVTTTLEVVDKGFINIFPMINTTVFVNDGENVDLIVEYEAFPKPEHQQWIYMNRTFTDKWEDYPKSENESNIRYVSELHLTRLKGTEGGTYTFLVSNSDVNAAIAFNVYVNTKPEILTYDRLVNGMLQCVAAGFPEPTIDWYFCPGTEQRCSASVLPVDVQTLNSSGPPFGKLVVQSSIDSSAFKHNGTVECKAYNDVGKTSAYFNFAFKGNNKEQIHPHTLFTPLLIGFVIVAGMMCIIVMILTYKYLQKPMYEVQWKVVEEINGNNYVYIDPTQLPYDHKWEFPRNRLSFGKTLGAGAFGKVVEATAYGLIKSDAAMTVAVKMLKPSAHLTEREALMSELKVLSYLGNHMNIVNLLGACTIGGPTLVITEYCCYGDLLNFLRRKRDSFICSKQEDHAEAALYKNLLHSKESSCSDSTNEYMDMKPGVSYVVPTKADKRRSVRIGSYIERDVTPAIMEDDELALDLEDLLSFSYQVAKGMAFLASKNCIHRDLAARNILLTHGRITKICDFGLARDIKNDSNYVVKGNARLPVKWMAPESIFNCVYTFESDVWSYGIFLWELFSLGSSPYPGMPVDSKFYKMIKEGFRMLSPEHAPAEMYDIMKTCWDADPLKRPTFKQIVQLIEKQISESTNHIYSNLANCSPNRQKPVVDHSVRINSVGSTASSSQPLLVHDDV
Outline: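 Serum- and GM-CSF-starved M-07e cells (4 h) pretreated 60 min at 37 °C with an 8-point compound series in duplicate (0.25% DMSO), then stimulated with human SCF (500 ng/mL stock) 10 min at room temperature. Lysate c-kit Tyr719 phosphorylation quantified by sandwich ELISA with TMB read-out; IC50 from 4-parameter logistic fit.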

human P-glycoprotein (P-gp, MDR1), sequence (P08183 whole entry): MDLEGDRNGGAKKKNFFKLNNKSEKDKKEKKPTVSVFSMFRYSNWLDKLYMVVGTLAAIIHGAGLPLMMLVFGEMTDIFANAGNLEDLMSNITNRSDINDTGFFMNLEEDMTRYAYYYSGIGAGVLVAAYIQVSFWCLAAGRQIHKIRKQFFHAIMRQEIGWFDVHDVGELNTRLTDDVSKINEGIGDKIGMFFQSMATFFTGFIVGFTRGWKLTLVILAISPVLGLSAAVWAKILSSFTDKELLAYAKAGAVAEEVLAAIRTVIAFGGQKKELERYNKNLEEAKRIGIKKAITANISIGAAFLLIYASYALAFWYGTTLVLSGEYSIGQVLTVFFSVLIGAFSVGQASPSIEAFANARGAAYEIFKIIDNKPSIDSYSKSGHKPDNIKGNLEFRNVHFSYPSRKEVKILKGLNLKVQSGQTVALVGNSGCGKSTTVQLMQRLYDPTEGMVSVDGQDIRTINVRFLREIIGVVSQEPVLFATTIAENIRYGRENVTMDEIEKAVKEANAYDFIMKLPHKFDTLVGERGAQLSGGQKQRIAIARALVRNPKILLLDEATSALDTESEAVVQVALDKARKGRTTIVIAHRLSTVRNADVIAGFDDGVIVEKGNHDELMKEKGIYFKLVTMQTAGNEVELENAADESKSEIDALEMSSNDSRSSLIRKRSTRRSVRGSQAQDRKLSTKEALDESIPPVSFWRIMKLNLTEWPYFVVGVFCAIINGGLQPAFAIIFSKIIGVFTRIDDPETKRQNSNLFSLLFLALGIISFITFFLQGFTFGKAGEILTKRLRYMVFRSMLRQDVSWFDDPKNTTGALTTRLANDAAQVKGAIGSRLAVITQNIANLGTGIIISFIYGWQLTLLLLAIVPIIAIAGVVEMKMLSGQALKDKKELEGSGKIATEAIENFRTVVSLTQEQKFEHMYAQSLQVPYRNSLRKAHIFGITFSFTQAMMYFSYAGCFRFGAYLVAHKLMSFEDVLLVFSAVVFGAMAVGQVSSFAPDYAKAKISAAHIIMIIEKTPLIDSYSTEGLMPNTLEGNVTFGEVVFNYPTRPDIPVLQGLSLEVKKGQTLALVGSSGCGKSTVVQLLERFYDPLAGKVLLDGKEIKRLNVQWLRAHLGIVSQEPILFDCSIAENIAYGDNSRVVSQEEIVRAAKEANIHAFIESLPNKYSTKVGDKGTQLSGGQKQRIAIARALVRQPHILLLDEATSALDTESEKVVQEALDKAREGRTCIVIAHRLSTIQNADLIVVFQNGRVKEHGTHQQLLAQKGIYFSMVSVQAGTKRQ

SMILES | efflux ratio at 2 h, 1 µM [1] | IC50 [2]
Cc1ccc(-c2nnn(C3CC3)n2)cc1NC(=O)c1cnn2ccc(-c3c(C)nn(CCO)c3C)cc12 [Example 208, N-(5-(2-cyclopropyl-2H-tetrazol-5-yl)-2-methylphenyl)-5-(1-(2-hydroxyethyl)-3,5-dimethyl-1H-pyrazol-4-yl)pyrazolo[1,5-a]pyridine-3-carboxamide] | 4.1 | 0.4 nM
CCS(=O)(=O)N1CC(n2nnc(-c3ccc(C)c(NC(=O)c4cnn5ccccc45)c3)n2)C1 [Example 173, N-(5-(2-(1-(ethylsulfonyl)azetidin-3-yl)-2H-tetrazol-5-yl)-2-methylphenyl)pyrazolo[1,5-a]pyridine-3-carboxamide] | 3.5 | 12 nM
O=C(Nc1cc(-n2nnc([C@H]3C[C@@H]3F)n2)ccc1Cl)c1cnn2ccc(-c3cnn(CC4(O)CCOCC4)c3)cc12 (single isomer, unassigned) [Example 271, N-(2-chloro-5-(5-((1R,2S)-2-fluorocyclopropyl)-2H-tetrazol-2-yl)phenyl)-5-(1-((4-hydroxytetrahydro-2H-pyran-4-yl)methyl)-1H-pyrazol-4-yl)pyrazolo[1,5-a]pyridine-3-carboxamide or N-(2-chloro-5-(5-((1S,2R)-2-fluorocyclopropyl)-2H-tetrazol-2-yl)phenyl)-5-(1-((4-hydroxytetrahydro-2H-pyran-4-yl)methyl)-1H-pyrazol-4-yl)pyrazolo[1,5-a]pyridine-3-carboxamide] | 2.2 | 0.3 nM
Cc1ccc(-c2nnn([C@H]3C[C@@H](C(F)(F)F)C3)n2)cc1NC(=O)c1cnn2ccc(NCCO)cc12 [Example 120, 5-((2-hydroxyethyl)amino)-N-(2-methyl-5-(2-((1s,3s)-3-(trifluoromethyl)cyclobutyl)-2H-tetrazol-5-yl)phenyl)pyrazolo[1,5-a]pyridine-3-carboxamide or 5-((2-hydroxyethyl)amino)-N-(2-methyl-5-(2-((1r,3r)-3-(trifluoromethyl)cyclobutyl)-2H-tetrazol-5-yl)phenyl)pyrazolo[1,5-a]pyridine-3-carboxamide] | 35.9 | 4.1 nM
COC(=O)N1CC(n2nnc(-c3ccc(C)c(NC(=O)c4cnn5ccc(NCC(C)(F)F)cc45)c3)n2)C1 [Example 92, methyl 3-(5-(3-(5-((2,2-difluoropropyl)amino)pyrazolo[1,5-a]pyridine-3-carboxamido)-4-methylphenyl)-2H-tetrazol-2-yl)azetidine-1-carboxylate] | 11.4 | 22.1 nM
Cc1ccc(-c2nnn(C3CN(S(C)(=O)=O)C3)n2)cc1NC(=O)c1cnn2ccccc12 [Example 172, N-(2-methyl-5-(2-(1-(methylsulfonyl)azetidin-3-yl)-2H-tetrazol-5-yl)phenyl)pyrazolo[1,5-a]pyridine-3-carboxamide] | 5.5 | 35.4 nM
COC(=O)N1CC(n2nnc(-c3ccc(C)c(NC(=O)c4cnn5ccc(OCCC(C)(C)O)cc45)c3)n2)C1 [Example 65, methyl 3-(5-(3-(5-(3-hydroxy-3-methylbutoxy)pyrazolo[1,5-a]pyridine-3-carboxamido)-4-methylphenyl)-2H-tetrazol-2-yl)azetidine-1-carboxylate] | 23.5 | 33.7 nM
COC(=O)N1CC(c2cnn(-c3ccc(C)c(NC(=O)c4cnn5ccc(NCC6COC6)cc45)c3)n2)C1 [Example 140, methyl 3-(2-(4-methyl-3-(5-((oxetan-3-ylmethyl)amino)pyrazolo[1,5-a]pyridine-3-carboxamido)phenyl)-2H-1,2,3-triazol-4-yl)azetidine-1-carboxylate] | 72.2 | 24.1 nM
Cc1nnn(-c2ccc(C)c(NC(=O)c3cnn4ccc(-c5cnn(CC(C)(C)O)c5)cc34)c2)n1 [Example 209, 5-(1-(2-hydroxy-2-methylpropyl)-1H-pyrazol-4-yl)-N-(2-methyl-5-(5-methyl-2H-tetrazol-2-yl)phenyl)pyrazolo[1,5-a]pyridine-3-carboxamide] | 4.3 | 6.9 nM
COC(=O)N1CC(c2cnn(-c3ccc(C)c(NC(=O)c4cnn5ccc(NCC(F)F)cc45)c3)n2)C1 [Example 139, methyl 3-(2-(3-(5-((2,2-difluoroethyl)amino)pyrazolo[1,5-a]pyridine-3-carboxamido)-4-methylphenyl)-2H-1,2,3-triazol-4-yl)azetidine-1-carboxylate] | 18.9 | 26.3 nM
Cc1ccc(-c2nnn(C3CC(F)(F)C3)n2)cc1NC(=O)c1cnn2ccc(N3CC[C@@H](O)C3)cc12 [Example 78, (R)-N-(5-(2-(3,3-difluorocyclobutyl)-2H-tetrazol-5-yl)-2-methylphenyl)-5-(3-hydroxypyrrolidin-1-yl)pyrazolo[1,5-a]pyridine-3-carboxamide] | 13.1 | 9.6 nM

Further molecules by falling IC50 [2], results first:

efflux ratio at 2 h, 1 µM [1] | IC50 [2] | SMILES
33.9 | 87.7 nM | COC(=O)N1CC(n2nnc(-c3ccc(C)c(NC(=O)c4cnn5ccc(N6CC[C@H]6CO)cc45)c3)n2)C1 [Example 90, methyl (S)-3-(5-(3-(5-(2-(hydroxymethyl)azetidin-1-yl)pyrazolo[1,5-a]pyridine-3-carboxamido)-4-methylphenyl)-2H-tetrazol-2-yl)azetidine-1-carboxylate]
7.1 | 25 nM | COC[C@@H]1CCN1c1ccn2ncc(C(=O)Nc3cc(-c4nnn(C5CN(C(=O)OC)C5)n4)ccc3C)c2c1 (stereo in doubt) [Example 85, methyl (S)-3-(5-(3-(5-(2-(methoxymethyl)azetidin-1-yl)pyrazolo[1,5-a]pyridine-3-carboxamido)-4-methylphenyl)-2H-tetrazol-2-yl)azetidine-1-carboxylate or methyl (R)-3-(5-(3-(5-(2-(methoxymethyl)azetidin-1-yl)pyrazolo[1,5-a]pyridine-3-carboxamido)-4-methylphenyl)-2H-tetrazol-2-yl)azetidine-1-carboxylate]
5.3 | 18 nM | COC(=O)N1CC(n2nnc(-c3ccc(C)c(NC(=O)c4cnn5ccc(COCC(F)F)cc45)c3)n2)C1 [Example 162, methyl 3-(5-(3-(5-((2,2-difluoroethoxy)methyl)pyrazolo[1,5-a]pyridine-3-carboxamido)-4-methylphenyl)-2H-tetrazol-2-yl)azetidine-1-carboxylate]
16 | 5.2 nM | Cc1ccc(-c2nnn(C3CC(F)(F)C3)n2)cc1NC(=O)c1cnn2ccc(NCCO)cc12 [Example 101, N-(5-(2-(3,3-difluorocyclobutyl)-2H-tetrazol-5-yl)-2-methylphenyl)-5-((2-hydroxyethyl)amino)pyrazolo[1,5-a]pyridine-3-carboxamide]
10.9 | 1.5 nM | Cc1ccc(-c2nnn(C)n2)cc1NC(=O)c1cnn2ccc(-c3cnn(C[C@@H](C)O)c3)cc12 (mixture of isomers) [Example 53, (R)-5-(1-(2-hydroxypropyl)-1H-pyrazol-4-yl)-N-(2-methyl-5-(2-methyl-2H-tetrazol-5-yl)phenyl)pyrazolo[1,5-a]pyridine-3-carboxamide and (S)-5-(1-(2-hydroxypropyl)-1H-pyrazol-4-yl)-N-(2-methyl-5-(2-methyl-2H-tetrazol-5-yl)phenyl)pyrazolo[1,5-a]pyridine-3-carboxamide]

Reference: patent US20240262826A1, “WILD TYPE KIT INHIBITORS” (Blueprint Medicines Corporation, priority 2022, published 2024)
